Laboratory results: patent US11555006B2, “Elucidation of novel 13-series resolvins that increase with atorvastatin and clear infections” (The Brigham and Women's Hospital, Inc., priority 2015, dated 2023)

Assays:
[1] = target: T1, human recombinant COX-2 (Homo sapiens, UniProt P35354); assay: n-3 DPA conversion by S-nitrosylated hrCOX-2; type: biochemical; settings: hrCOX-2 incubated with S-nitrosoglutathione
T1 construct: purchased Cayman Chemicals
T1 sequence (P35354 18-604): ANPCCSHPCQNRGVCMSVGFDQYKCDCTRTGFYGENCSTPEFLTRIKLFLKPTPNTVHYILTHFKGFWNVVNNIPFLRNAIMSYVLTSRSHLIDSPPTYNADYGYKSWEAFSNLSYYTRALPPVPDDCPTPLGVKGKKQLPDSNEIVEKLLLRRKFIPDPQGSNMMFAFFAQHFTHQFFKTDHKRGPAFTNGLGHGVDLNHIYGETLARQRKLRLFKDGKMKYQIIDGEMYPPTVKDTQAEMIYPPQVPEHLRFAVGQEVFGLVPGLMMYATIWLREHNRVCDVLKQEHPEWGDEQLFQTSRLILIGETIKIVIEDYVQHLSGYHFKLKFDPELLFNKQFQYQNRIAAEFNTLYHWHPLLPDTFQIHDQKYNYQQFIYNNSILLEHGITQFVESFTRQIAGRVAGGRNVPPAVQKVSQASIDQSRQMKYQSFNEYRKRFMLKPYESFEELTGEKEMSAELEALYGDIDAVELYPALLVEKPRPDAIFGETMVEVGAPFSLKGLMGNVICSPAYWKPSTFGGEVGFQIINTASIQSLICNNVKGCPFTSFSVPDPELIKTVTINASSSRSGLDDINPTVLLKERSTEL
Description: In designated experiments, n-3 DPA was incubated with hrCOX2, hrCOX-2 that was previously incubated with S-nitrosoglutathione (30 min RT), prepared by incubating 100 mM glutathione with 100 mM sodium nitrite in 200 mM hydrochloric acid at RT as in ^34 or S-nitrosoglutathione. After 20 min the incubations were quenched with methanol and 13-HDPA levels were assessed using LC-MS-MS-based LM metabololipidomics.

[2] = tested on: human neutrophil-endothelial cell co-incubations; assay: Lipid mediator levels in human endothelial cell incubations and neutrophil-endothelial cell co-incubations; type: cell-based; settings: neutrophil-endothelial cells, 1 μM precursor
Description: Prior to sample extraction, deuterated internal standards (d4-PGE2, d5-LXA4, d4-RvD2, d4-LTB4 and d8-5S-HETE) representing regions of interest in the chromatographic analysis (500 pg each) were added to facilitate quantification. Extracted samples were analyzed by a LC-MS-MS system, Qtrap 6500 (AB Sciex) equipped with a Shimadzu SIL-20AC autoinjector and LC-20AD binary pump (Shimadzu Corp.). An Agilent Eclipse Plus C18 column (100×4.6 mm×1.8 μm) was used with a gradient of methanol/water/acetic acid of 55:45:0.01 (vol:vol:vol) that was ramped to 85:15:0.01 (vol:vol:vol) over 10 min and then to 98:2:0.01 (vol:vol:vol) for the next 8 min. This was subsequently maintained at 98:2:0.01 (vol:vol:vol) for 2 min. The flow rate was maintained at 0.4 ml/min. To monitor and quantify the levels of lipid mediators, a multiple reaction monitoring (MRM) method was developed with signature ion fragments (m/z) for each molecule monitoring the parent ion (Q1) and a characteristic daughter ion (Q3). […] Calibration curves were determined using a mixture of lipid mediators obtained via total organic synthesis, where these lipid mediators were not available (RvT1, RvT2, RvT3, RvT4 and 13-HDPA); known mediators with similar chromatographic properties (RvD2 for RvT1, RvD1 for RvT2 and RvT3; RvD5 for RvT4; 13-HDHA for 13-HDPA) were used. […]

[3] = target: T1, human recombinant COX-2; assay: Recombinant enzyme incubations, Michaelis Menten kinetics; type: biochemical; settings: n-3 DPA converted to 13R-HDPA by human recombinant COX-2
Description: Human recombinant COX-2 (10 units; Cayman Chemicals; in 0.1 M Tris-HCl, pH 8.0, 20 μM porcine hematin, 0.67 mM phenol as in ^33) was incubated with the indicated concentrations of AA or n-3 DPA (1 h, RT) and absorbance at 235 nm was investigated at 1 min intervals using a Cary UV-Vis Spectrophotometer (Agilent).

Row | Compound | 13R-HDPA and hrCOX-2 catalytic activity compared to native COX-2 [1] | increase in RvT amounts on co-incubation with precursor [2] | Km [3] [µM]
1 | N[C@@H](CCC(=O)N[C@@H](CSN=O)C(=O)NCC(=O)O)C(=O)O [S-nitrosoglutathione] | increased | – | –
2 | CC/C=C\C/C=C\C/C=C\C/C=C\C/C=C\CCCCCC(=O)O [n-3 DPA, n-3 docosapentaenoic acid] | – | 30-50% | 3.1 ± 1.3
